Assay results from ChEMBL document CHEMBL1909046, “DrugMatrix in vitro pharmacology data”.

Legend:
Acetylcholinesterase = Acetylcholinesterase (Homo sapiens, UniProt P22303); experiment: DRUGMATRIX: Acetylcholinesterase enzyme inhibition (substrate: acetylthiocholine); format: cell-based, HEK293; settings: hek293; Not Active = under 50% inhibition at 10 µM
[1] = DRUGMATRIX: Glutamate, Kainate radioligand binding (ligand: [3H] Kainic acid); format: cell membranes, Rattus norvegicus, Wistar, Brain, Membrane; settings: Not Active = under 50% inhibition at 10 µM
D(4) dopamine receptor = target: T1, D(4) dopamine receptor (Homo sapiens, UniProt P21917); experiment: DRUGMATRIX: Dopamine D4.2 radioligand binding (ligand: [3H] Spiperone); format: cell membranes, CHO-K1, Membrane; settings: cho-k1; Not Active = under 50% inhibition at 10 µM
T1 sequence (P21917 whole entry): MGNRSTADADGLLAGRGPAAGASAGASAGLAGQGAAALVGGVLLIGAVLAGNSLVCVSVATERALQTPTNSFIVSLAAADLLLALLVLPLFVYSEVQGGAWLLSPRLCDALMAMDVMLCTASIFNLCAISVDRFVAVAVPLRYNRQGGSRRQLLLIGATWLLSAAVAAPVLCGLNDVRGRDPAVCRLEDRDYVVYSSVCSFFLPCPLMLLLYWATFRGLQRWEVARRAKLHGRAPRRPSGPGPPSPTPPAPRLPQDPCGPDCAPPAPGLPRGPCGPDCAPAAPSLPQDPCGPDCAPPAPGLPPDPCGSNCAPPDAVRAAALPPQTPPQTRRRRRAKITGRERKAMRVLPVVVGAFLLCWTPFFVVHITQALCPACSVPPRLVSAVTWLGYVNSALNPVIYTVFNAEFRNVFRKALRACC

[2] = target: Vascular endothelial growth factor receptor 1 (Homo sapiens, UniProt P17948); format: cell-based; settings: huvec; further: in other assays of this panel Not Active means under 50% inhibition at 10 µM
[3] = target: Protein phosphatase 3 catalytic subunit alpha (Homo sapiens, UniProt Q08209); parameters: species or system Escherichia coli;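 further: inhibition of calcineurin (PP2B) enzyme activity, measured with DiFMUP as the substrate; in other assays of this panel Not Active means under 50% inhibition at 10 µM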
Cytochrome P450 1A2 = target: T2, Cytochrome P450 1A2 (Homo sapiens, UniProt P05177); settings: bti-tn-5b1-4; further: in other assays of this panel Not Active means under 50% inhibition at 10 µM
T2 sequence (P05177 whole entry): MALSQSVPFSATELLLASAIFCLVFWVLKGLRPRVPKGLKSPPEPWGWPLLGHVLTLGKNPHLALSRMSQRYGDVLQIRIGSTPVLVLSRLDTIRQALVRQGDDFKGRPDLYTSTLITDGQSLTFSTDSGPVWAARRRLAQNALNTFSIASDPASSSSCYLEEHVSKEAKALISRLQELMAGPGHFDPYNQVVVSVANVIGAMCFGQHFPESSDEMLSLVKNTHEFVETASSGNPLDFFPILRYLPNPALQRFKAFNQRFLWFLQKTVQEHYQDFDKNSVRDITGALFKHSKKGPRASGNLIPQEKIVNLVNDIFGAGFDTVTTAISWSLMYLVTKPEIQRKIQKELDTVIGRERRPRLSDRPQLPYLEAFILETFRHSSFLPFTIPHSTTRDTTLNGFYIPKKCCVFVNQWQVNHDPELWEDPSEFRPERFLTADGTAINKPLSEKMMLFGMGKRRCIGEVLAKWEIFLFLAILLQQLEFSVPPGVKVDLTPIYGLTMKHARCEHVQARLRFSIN

[4] = target: T3, Angiotensin-converting enzyme (Oryctolagus cuniculus, UniProt P12822); experiment: biochemical; format: tissue-based, Lung;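 further: enzymatic inhibition of angiotensin-converting enzyme measured with FAPGG as the substrate; in other assays of this panel Not Active means under 50% inhibition at 10 µM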
T3 sequence (P12822 whole entry): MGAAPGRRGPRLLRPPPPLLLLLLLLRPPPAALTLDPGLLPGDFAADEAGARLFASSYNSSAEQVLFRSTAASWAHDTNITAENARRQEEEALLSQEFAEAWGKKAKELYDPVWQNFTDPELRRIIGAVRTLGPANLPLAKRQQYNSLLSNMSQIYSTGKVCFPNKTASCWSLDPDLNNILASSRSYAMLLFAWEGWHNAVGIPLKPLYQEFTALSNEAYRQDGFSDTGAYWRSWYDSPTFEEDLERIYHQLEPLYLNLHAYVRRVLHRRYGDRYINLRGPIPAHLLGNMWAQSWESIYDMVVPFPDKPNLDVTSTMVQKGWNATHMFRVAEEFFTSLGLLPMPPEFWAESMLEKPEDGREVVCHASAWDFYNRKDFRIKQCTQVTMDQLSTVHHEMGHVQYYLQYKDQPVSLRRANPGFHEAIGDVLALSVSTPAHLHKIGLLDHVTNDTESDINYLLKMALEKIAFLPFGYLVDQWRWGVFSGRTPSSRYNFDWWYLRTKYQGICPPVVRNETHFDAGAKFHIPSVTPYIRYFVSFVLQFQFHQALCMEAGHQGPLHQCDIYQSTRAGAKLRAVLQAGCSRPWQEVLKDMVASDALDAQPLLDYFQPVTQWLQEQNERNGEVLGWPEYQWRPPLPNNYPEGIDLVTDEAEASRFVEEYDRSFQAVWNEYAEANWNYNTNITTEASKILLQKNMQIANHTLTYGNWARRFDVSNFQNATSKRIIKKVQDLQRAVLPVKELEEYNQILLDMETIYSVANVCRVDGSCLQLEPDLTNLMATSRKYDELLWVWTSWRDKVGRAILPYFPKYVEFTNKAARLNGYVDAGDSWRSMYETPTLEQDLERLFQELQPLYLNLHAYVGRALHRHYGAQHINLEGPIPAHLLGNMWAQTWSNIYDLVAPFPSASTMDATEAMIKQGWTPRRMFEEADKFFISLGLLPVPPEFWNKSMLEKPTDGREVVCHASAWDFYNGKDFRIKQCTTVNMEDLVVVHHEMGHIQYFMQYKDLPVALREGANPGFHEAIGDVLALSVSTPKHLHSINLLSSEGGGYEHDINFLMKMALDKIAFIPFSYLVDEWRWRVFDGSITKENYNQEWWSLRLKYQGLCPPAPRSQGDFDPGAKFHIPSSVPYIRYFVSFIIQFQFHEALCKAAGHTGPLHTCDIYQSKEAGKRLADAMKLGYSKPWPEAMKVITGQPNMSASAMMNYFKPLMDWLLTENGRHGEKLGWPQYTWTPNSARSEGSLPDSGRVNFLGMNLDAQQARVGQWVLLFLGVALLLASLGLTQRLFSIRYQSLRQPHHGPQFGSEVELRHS

Cannabinoid receptor 1 = Cannabinoid receptor 1 (Homo sapiens, UniProt P21554); format: cell membranes, Chem-1, Membrane; settings: chem-1; further: in other assays of this panel Not Active means under 50% inhibition at 10 µM
Chain of Cannabinoid receptor 1 (P21554 whole entry): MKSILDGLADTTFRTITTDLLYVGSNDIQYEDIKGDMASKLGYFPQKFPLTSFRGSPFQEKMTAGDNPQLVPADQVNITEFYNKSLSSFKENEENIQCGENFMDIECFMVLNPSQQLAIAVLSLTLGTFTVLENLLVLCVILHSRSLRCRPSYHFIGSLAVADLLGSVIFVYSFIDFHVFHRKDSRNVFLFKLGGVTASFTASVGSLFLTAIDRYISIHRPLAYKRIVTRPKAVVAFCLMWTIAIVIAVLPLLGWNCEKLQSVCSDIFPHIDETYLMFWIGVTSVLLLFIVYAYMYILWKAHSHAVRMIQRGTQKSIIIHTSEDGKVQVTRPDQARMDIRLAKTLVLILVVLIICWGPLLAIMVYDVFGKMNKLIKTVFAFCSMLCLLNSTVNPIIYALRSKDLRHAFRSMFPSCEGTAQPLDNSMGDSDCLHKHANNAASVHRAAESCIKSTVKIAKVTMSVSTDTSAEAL

Chain of Acetylcholinesterase (P22303 whole entry): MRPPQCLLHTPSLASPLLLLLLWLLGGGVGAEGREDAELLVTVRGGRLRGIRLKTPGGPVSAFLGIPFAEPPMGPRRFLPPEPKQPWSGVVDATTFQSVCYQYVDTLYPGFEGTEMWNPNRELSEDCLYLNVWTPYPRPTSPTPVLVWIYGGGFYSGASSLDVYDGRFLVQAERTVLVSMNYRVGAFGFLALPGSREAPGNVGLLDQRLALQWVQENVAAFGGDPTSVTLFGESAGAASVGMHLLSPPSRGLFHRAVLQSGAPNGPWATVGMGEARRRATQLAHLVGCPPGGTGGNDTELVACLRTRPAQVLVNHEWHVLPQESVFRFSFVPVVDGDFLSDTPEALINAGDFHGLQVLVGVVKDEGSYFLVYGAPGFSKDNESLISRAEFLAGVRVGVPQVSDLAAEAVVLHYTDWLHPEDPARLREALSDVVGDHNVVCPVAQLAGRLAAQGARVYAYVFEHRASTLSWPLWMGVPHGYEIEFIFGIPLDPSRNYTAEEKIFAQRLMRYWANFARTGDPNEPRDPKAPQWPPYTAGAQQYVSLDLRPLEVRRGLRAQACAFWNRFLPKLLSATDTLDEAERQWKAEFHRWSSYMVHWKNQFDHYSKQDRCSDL
Chain of Vascular endothelial growth factor receptor 1 (P17948 whole entry): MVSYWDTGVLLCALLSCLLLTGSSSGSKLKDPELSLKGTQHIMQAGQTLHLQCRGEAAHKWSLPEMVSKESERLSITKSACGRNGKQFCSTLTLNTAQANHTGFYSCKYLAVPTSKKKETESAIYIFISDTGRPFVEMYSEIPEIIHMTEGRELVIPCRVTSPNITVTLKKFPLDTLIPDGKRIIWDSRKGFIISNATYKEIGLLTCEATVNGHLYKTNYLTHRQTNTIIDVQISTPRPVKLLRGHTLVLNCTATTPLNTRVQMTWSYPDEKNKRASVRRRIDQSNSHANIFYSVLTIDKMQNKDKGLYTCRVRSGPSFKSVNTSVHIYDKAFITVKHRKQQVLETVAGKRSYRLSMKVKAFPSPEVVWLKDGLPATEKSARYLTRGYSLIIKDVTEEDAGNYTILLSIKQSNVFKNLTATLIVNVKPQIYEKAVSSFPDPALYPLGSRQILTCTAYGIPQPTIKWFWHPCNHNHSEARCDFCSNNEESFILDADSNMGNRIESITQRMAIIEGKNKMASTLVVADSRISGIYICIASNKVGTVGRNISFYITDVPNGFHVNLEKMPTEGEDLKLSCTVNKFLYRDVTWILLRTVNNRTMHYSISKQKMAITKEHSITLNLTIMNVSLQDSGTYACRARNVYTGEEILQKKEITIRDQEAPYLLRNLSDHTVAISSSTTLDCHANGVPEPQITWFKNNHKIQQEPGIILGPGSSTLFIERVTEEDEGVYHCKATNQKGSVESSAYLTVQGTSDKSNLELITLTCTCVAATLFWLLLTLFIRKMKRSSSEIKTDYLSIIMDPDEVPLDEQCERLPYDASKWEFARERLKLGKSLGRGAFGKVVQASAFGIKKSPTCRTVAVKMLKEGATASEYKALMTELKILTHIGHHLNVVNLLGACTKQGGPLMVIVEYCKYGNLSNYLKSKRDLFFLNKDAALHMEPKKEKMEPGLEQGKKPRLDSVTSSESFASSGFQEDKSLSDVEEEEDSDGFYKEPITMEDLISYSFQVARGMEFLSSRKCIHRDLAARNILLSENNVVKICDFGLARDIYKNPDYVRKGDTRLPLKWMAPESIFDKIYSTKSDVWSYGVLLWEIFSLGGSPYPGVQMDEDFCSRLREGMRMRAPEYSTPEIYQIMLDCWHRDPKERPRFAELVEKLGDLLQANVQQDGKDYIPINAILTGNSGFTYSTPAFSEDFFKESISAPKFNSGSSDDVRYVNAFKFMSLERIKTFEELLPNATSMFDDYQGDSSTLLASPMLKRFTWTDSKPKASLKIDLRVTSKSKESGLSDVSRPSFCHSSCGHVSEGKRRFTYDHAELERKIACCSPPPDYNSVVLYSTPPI

Oc1ccccc1 [PHENOL]
Not Active: IC50 (Acetylcholinesterase) | IC50 [1] | Ki [1] | IC50 (D(4) dopamine receptor) | IC50 [2] | IC50 [3] | IC50 (Cytochrome P450 1A2) | Ki (Cytochrome P450 1A2) | IC50 [4] | IC50 (Cannabinoid receptor 1)

CNC[C@H](O)c1ccc(O)c(O)c1 [EPINEPHRINE]
Not Active: IC50 (Acetylcholinesterase) | IC50 [1] | Ki [1] | IC50 (D(4) dopamine receptor) | IC50 [2] | IC50 [3] | IC50 (Cytochrome P450 1A2) | Ki (Cytochrome P450 1A2) | IC50 [4] | IC50 (Cannabinoid receptor 1)

CN(Cc1cc(Br)cc(Br)c1N)C1CCCCC1 [BROMHEXINE]
Not Active: IC50 (Acetylcholinesterase) | IC50 [1] | Ki [1] | IC50 (D(4) dopamine receptor) | IC50 [2] | IC50 [3] | IC50 (Cytochrome P450 1A2) | Ki (Cytochrome P450 1A2) | IC50 [4] | IC50 (Cannabinoid receptor 1)

CC(C)Cc1ccc([C@H](C)C(=O)O)cc1 [DEXIBUPROFEN]
Not Active: IC50 (Acetylcholinesterase) | IC50 [1] | Ki [1] | IC50 (D(4) dopamine receptor) | IC50 [2] | IC50 [3] | IC50 (Cytochrome P450 1A2) | Ki (Cytochrome P450 1A2) | IC50 [4] | IC50 (Cannabinoid receptor 1)

CC(C)Cn1cnc2c(N)nc3ccccc3c21 [IMIQUIMOD]
Not Active: IC50 (Acetylcholinesterase) | IC50 [1] | Ki [1] | IC50 (D(4) dopamine receptor) | IC50 [2] | IC50 [3] | IC50 (Cytochrome P450 1A2) | Ki (Cytochrome P450 1A2) | IC50 [4] | IC50 (Cannabinoid receptor 1)

CC(C)(C#N)c1cc(Cn2cncn2)cc(C(C)(C)C#N)c1 [ANASTROZOLE]
Not Active: IC50 (Acetylcholinesterase) | IC50 [1] | Ki [1] | IC50 (D(4) dopamine receptor) | IC50 [2] | IC50 [3] | IC50 (Cytochrome P450 1A2) | Ki (Cytochrome P450 1A2) | IC50 [4] | IC50 (Cannabinoid receptor 1)

POVIDONE
Not Active: IC50 (Acetylcholinesterase) | Ki (Acetylcholinesterase) | IC50 [1] | Ki [1] | IC50 (D(4) dopamine receptor) | Ki (D(4) dopamine receptor) | IC50 [2] | Ki [2] | IC50 [3] | Ki [3] | IC50 (Cytochrome P450 1A2) | Ki (Cytochrome P450 1A2) | IC50 [4] | Ki [4] | IC50 (Cannabinoid receptor 1) | Ki (Cannabinoid receptor 1)

COc1ccccc1OCCNCC(O)COc1cccc2[nH]c3ccccc3c12 (configuration not stated) [CARVEDILOL]
Not Active: IC50 (Acetylcholinesterase) | IC50 [1] | Ki [1] | IC50 (D(4) dopamine receptor) | IC50 [2] | IC50 [3] | IC50 (Cytochrome P450 1A2) | Ki (Cytochrome P450 1A2) | IC50 [4] | IC50 (Cannabinoid receptor 1)

Nc1ccc(Cc2ccc(N)cc2)cc1
Not Active: IC50 (Acetylcholinesterase) | IC50 [1] | Ki [1] | IC50 (D(4) dopamine receptor) | IC50 [2] | IC50 [3] | IC50 (Cytochrome P450 1A2) | Ki (Cytochrome P450 1A2) | IC50 [4] | IC50 (Cannabinoid receptor 1)

CARBOXYMETHYLCELLULOSE
Not Active: IC50 (Acetylcholinesterase) | Ki (Acetylcholinesterase) | IC50 [1] | Ki [1] | IC50 (D(4) dopamine receptor) | Ki (D(4) dopamine receptor) | IC50 [2] | Ki [2] | IC50 [3] | Ki [3] | IC50 (Cytochrome P450 1A2) | Ki (Cytochrome P450 1A2) | IC50 [4] | Ki [4] | IC50 (Cannabinoid receptor 1) | Ki (Cannabinoid receptor 1)

c1ccc2sc(SSc3nc4ccccc4s3)nc2c1 [BENZOTHIAZYL DISULFIDE]
Not Active: IC50 (Acetylcholinesterase) | IC50 [1] | Ki [1] | IC50 (D(4) dopamine receptor) | IC50 [2] | IC50 [3] | IC50 (Cytochrome P450 1A2) | Ki (Cytochrome P450 1A2) | IC50 [4] | IC50 (Cannabinoid receptor 1)

O=C1c2ccccc2C(=O)C1c1ccccc1 [PHENINDIONE]
Not Active: IC50 (Acetylcholinesterase) | IC50 [1] | Ki [1] | IC50 (D(4) dopamine receptor) | IC50 [2] | IC50 [3] | IC50 (Cytochrome P450 1A2) | Ki (Cytochrome P450 1A2) | IC50 [4] | IC50 (Cannabinoid receptor 1)

Nc1ccc(C(=O)O)c(O)c1 [AMINOSALICYLIC ACID]
Not Active: IC50 (Acetylcholinesterase) | IC50 [1] | Ki [1] | IC50 (D(4) dopamine receptor) | IC50 [2] | IC50 [3] | IC50 (Cytochrome P450 1A2) | Ki (Cytochrome P450 1A2) | IC50 [4] | IC50 (Cannabinoid receptor 1)

OC[C@H]1O[C@@H]2O[C@H]3[C@H](O)[C@@H](O)[C@@H](O[C@H]4[C@H](O)[C@@H](O)[C@@H](O[C@H]5[C@H](O)[C@@H](O)[C@@H](O[C@H]6[C@H](O)[C@@H](O)[C@@H](O[C@H]7[C@H](O)[C@@H](O)[C@@H](O[C@H]1[C@H](O)[C@H]2O)O[C@@H]7CO)O[C@@H]6CO)O[C@@H]5CO)O[C@@H]4CO)O[C@@H]3CO [ALFADEX]
Not Active: IC50 (Acetylcholinesterase) | IC50 [1] | Ki [1] | IC50 (D(4) dopamine receptor) | IC50 [2] | IC50 [3] | IC50 (Cytochrome P450 1A2) | Ki (Cytochrome P450 1A2) | IC50 [4] | IC50 (Cannabinoid receptor 1)

COC(=O)C[C@](O)(CCC(C)(C)O)C(=O)O[C@@H]1C(OC)=C[C@]23CCCN2CCc2cc4c(cc2[C@H]13)OCO4 [HARRINGTONINE]
Not Active: IC50 (Acetylcholinesterase) | IC50 [1] | Ki [1] | IC50 (D(4) dopamine receptor) | IC50 [2] | IC50 [3] | IC50 (Cytochrome P450 1A2) | Ki (Cytochrome P450 1A2) | IC50 [4] | IC50 (Cannabinoid receptor 1)

O=C1CN(/N=C/c2ccc([N+](=O)[O-])o2)C(=O)N1 [NITROFURANTOIN]
Not Active: IC50 (Acetylcholinesterase) | IC50 [1] | Ki [1] | IC50 (D(4) dopamine receptor) | IC50 [2] | IC50 [3] | IC50 (Cytochrome P450 1A2) | Ki (Cytochrome P450 1A2) | IC50 [4] | IC50 (Cannabinoid receptor 1)

C[N+](C)(C)CCOC(N)=O.[Cl-] [CARBACHOL]
Not Active: IC50 (Acetylcholinesterase) | IC50 [1] | Ki [1] | Ki (D(4) dopamine receptor) | IC50 [2] | IC50 [3] | IC50 (Cytochrome P450 1A2) | Ki (Cytochrome P450 1A2) | IC50 [4] | IC50 (Cannabinoid receptor 1)
